Data on 12 compounds can be found in ChEMBL document CHEMBL1201862, “PubChem BioAssay data set” (2004).

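Step 1: Grow cells in 96-well plates. Step 2: Expose to compound for 48 hours at 5 concentrations. Step 3: Interpolate endpoints linearly; if unreached, use highest concentration. GI50 = concentration required for 50% inhibition of growth.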 Activity calls are given as the source filed them. No stated cut-off is given here; in the data, active = GI50 up to about 1.1 µM and inactive = higher.

Common to all, as to assay: NCI-60 cell line screen, 48 h
For assay [1], the system named is CAKI-1.
For assay [2], the system named is HCT-116.
The subject of assay [3] is HL-60.
The test system of assay [4] is HOP-62.
Assay [5] deals with HT-29.
The test system of assay [6] is M14.
Assay [7] relates to MOLT-4.
The test system of assay [8] is NCI-H23.
For assay [9], the system named is OVCAR-5.
The test system of assay [10] is SF-539.
The test system of assay [11] is SK-MEL-2.
Assay [12] has as its system SR.
Assay [13] has as its system TK-10.
Assay [14] concerns U-251.
In assay [15] the test system is UACC-257.
The test system of assay [16] is COLO 205.
Assay [17] relates to HCC 2998.
The test system of assay [18] is OVCAR-4.

In the case of `CC(C)(Oc1ccc2c(=O)cc(-c3ccc(Cl)cc3)oc2c1)C(=O)Nc1c(Cl)cccc1Cl`, the GI50 in assay [1], in [2], in assay [3], in assay [4], in assay [5] and in [6] was > 100 µM (inactive) each time. The GI50 in [7] was > 100 µM (inactive); in [8] it was > 100 µM (inactive); in assay [9], > 100 µM (inactive); in [10], > 100 µM (inactive); in assay [11], > 100 µM (inactive); in [12], 79.3 µM (inactive). For the same compound, the GI50 in assay [13], in [14] and in [15] was > 100 µM (inactive) in each case.

On to `CCC12CCCN(Cc3ccccc3)C1c1c(n(C)c3ccccc13)CC2` (centres undefined), for which the GI50 in [1] is > 253 µM (inactive); in assay [16], 164 µM (inactive); in assay [17], 151 µM (inactive); in [2], 141 µM (inactive); in assay [3] it was 106 µM (inactive); in [4], > 253 µM (inactive). Moreover, the GI50 was 167 µM (inactive) in assay [5]; 101 µM (inactive) in assay [7]; 111 µM (inactive) in [8]; > 253 µM (inactive) in [10]; > 253 µM (inactive) in assay [11]; 108 µM (inactive) in [12]. For the same compound, the GI50 in assay [13] was > 253 µM (inactive); in assay [14] it was 247 µM (inactive); in assay [15], 107 µM (inactive).

On to `O=C(O/N=C1/CCC/C1=C\c1ccccc1)c1ccccc1`, for which the GI50 in assay [1] is > 100 µM (inactive); in assay [16], > 100 µM (inactive); in assay [2], > 100 µM (inactive); in [3] it was 37.8 µM (inactive); in [4] it was > 100 µM (inactive); in [5], 40.7 µM (inactive). Besides, the GI50 in assay [6] was > 100 µM (inactive); in assay [7], 27.4 µM (inactive); in [8], > 100 µM (inactive); in assay [18], > 100 µM (inactive); in [9], > 100 µM (inactive); in [10], > 100 µM (inactive). Further, the GI50 in assay [11] is > 100 µM (inactive); in assay [12], 44.4 µM (inactive); in assay [13], > 100 µM (inactive); in assay [14], > 100 µM (inactive); in assay [15], > 100 µM (inactive).

In the case of `c1ccc(NC[Si]23OCCN(CCO2)CCO3)cc1`, the GI50 in assay [1], in assay [16], in assay [17], in assay [2], in assay [5] and in assay [7] was > 100 µM (inactive) throughout. Also, the GI50 in assay [8], in assay [9], in assay [10], in assay [11], in [12] and in assay [13] was > 100 µM (inactive) each time. For the same compound, the GI50 in [14] and in [15] was > 100 µM (inactive) in each case.

Consider `COc1cc(C2c3cc4c(cc3C(NCC(O)CO)C3COC(=O)[C@H]23)OCO4)cc(OC)c1OC` (some centres undefined), for which the GI50 in assay [16] is 0.184 µM (active); in assay [17] it was 0.428 µM (active); in [3], 0.0785 µM (active); in assay [4], 0.221 µM (active); in [5], 0.34 µM (active); in assay [6], 0.533 µM (active). Further, the GI50 in assay [7] was 0.272 µM (active); in [8], 0.267 µM (active); in [9], > 100 µM (inactive); in assay [10] it was 0.146 µM (active); in assay [12] it was 0.177 µM (active); in [13], > 100 µM (inactive). Moreover, the GI50 in [14] is 0.236 µM (active); in assay [15], > 100 µM (inactive).

For `CCOc1ccccc1NC(=O)C(=O)CC(=O)C1=C(C)Nc2ccccc2S1`, the GI50 in assay [1] is > 100 µM (inactive); in [16] it was > 100 µM (inactive); in assay [17] it was > 100 µM (inactive); in assay [2] it was > 100 µM (inactive); in assay [3] it was > 21.1 µM (inactive); in assay [4] it was > 100 µM (inactive). Besides, the GI50 in assay [5] is > 100 µM (inactive); in assay [6] it was > 100 µM (inactive); in assay [7] it was > 49.7 µM (inactive); in assay [8], > 100 µM (inactive); in [18], > 100 µM (inactive); in assay [9], > 100 µM (inactive). In addition, the GI50 in [10], in [11], in [13], in assay [14] and in assay [15] was > 100 µM (inactive) throughout.

Consider `C/C(CC(=O)Nc1ccccc1[N+](=O)[O-])=N\NC(N)=O`, for which the GI50 in assay [16], in assay [17], in [2], in [3], in assay [4] and in [5] was > 100 µM (inactive) throughout. Also, the GI50 in assay [6], in [7], in assay [8], in [9], in assay [10] and in assay [11] was > 100 µM (inactive) in each case. For the same compound, the GI50 in assay [13], in [14] and in assay [15] was > 100 µM (inactive) throughout.

For `CCOC(=O)c1c2ccc(/C=C/c3ccccn3)ccc-2c(C(=O)OCC)c1N`, the GI50 in assay [1] was > 100 µM (inactive); in [16] it was > 100 µM (inactive); in assay [17] it was > 100 µM (inactive); in assay [3], 89.1 µM (inactive); in assay [5], > 100 µM (inactive); in [6] it was > 100 µM (inactive). The GI50 in assay [7] is > 100 µM (inactive); in assay [8] it was > 100 µM (inactive); in assay [18], 37.6 µM (inactive); in [9] it was > 100 µM (inactive); in assay [10] it was 88.9 µM (inactive); in assay [11] it was > 100 µM (inactive). The GI50 in [13] and in assay [15] was > 100 µM (inactive) throughout.

With `COc1ccc(C(=O)O)c(Cc2cccc3ccccc23)c1`, the GI50 in assay [1] was 73.5 µM (inactive); in assay [16], > 100 µM (inactive); in assay [17], > 100 µM (inactive); in [2] it was > 100 µM (inactive); in [3], > 100 µM (inactive); in assay [4], > 100 µM (inactive). In addition, the GI50 in assay [5], in assay [6], in [7], in assay [8], in [18] and in assay [9] was > 100 µM (inactive) in each case. Further, the GI50 in assay [11], in [12], in assay [13], in assay [14] and in [15] was > 100 µM (inactive) each time.

For `CC1/C(=N\O)CC(c2ccccc2)N(C)C1c1ccccc1` (centres undefined), the GI50 in [1], in assay [16], in [17], in assay [2], in [3] and in assay [4] was > 100 µM (inactive) in each case. In addition, the GI50 in [5], in [6], in [7], in assay [8], in assay [18] and in assay [9] was > 100 µM (inactive) each time. In addition, the GI50 in [10], in assay [11], in assay [13], in [14] and in assay [15] was > 100 µM (inactive) each time.

Take `NC(=S)N/N=C/C(O[C@@H](/C=N/NC(N)=S)CO)n1cnc2c(N)ncnc21` (some centres undefined): the GI50 was > 100 µM (inactive) in assay [1]; > 49.8 µM (inactive) in [16]; > 100 µM (inactive) in [17]; 24.4 µM (inactive) in [2]; 67 µM (inactive) in assay [3]; > 100 µM (inactive) in assay [4]. Moreover, the GI50 is > 62.5 µM (inactive) in assay [5]; > 100 µM (inactive) in assay [6]; 50.7 µM (inactive) in [7]; > 100 µM (inactive) in assay [8]; > 100 µM (inactive) in assay [18]; > 100 µM (inactive) in [9]. The GI50 was > 100 µM (inactive) in assay [10]; > 100 µM (inactive) in [12]; > 100 µM (inactive) in assay [13]; > 51.2 µM (inactive) in assay [14]; > 100 µM (inactive) in assay [15].

In the case of `NC(=O)c1cn(C2OC(CO)C(O)C2O)c(=O)[nH]c1=O` (centres undefined), the GI50 in assay [1], in [16], in assay [2], in assay [3], in assay [4] and in assay [5] was > 100 µM (inactive) each time. Besides, the GI50 in assay [6], in assay [7], in assay [8], in assay [18], in [9] and in assay [10] was > 100 µM (inactive) throughout. Moreover, the GI50 in assay [11], in assay [12], in [13], in assay [14] and in [15] was > 100 µM (inactive) throughout.
